{"source": "paper PMC3816012", "about": "(Structure (London, England : 1993), 2013)", "target": "Qcl (Legionella pneumophila, UniProt O54635)", "sequence (O54635 49-191 limits assumed)": "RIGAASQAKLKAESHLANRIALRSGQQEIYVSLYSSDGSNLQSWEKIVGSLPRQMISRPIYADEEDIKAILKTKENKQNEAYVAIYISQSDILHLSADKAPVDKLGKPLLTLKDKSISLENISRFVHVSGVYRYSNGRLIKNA", "experiment": "biochemical", "data": [{"compound": "NC(=O)c1ccc[n+]([C@@H]2O[C@H](COP(=O)(O)OP(=O)(O)OC[C@H]3O[C@@H](n4cnc5c(N)ncnc54)[C@H](O)[C@@H]3O)[C@@H](O)[C@H]2O)c1", "note": "[NAD+]", "values": [{"measurement": "Kd", "result": "400 to 600", "unit": "µM"}]}]}
